Measured values reported in ChEMBL document CHEMBL1144687, “Pim2 inhibitors from the Papua New Guinean plant Cupaniopsis macropetala” (J Nat Prod, 2008).

Biological target: Serine/threonine-protein kinase pim-2 (Homo sapiens, UniProt Q9P1W9)
Assay: Inhibition of Pim2 kinase

Serine/threonine-protein kinase pim-2, sequence (Q9P1W9 whole entry): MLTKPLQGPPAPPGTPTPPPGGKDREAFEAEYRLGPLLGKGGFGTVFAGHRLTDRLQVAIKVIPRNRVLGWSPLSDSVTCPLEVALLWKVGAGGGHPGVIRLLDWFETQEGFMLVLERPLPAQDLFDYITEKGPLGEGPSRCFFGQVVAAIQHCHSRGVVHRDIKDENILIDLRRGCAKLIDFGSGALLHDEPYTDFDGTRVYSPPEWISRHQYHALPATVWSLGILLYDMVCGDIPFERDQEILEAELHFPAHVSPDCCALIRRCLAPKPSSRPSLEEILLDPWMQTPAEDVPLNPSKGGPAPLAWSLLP

Structure (SMILES) | IC50 [µM]
NCCc1ccc(OC(=O)c2cc(O)c(O)c(O)c2)cc1 [GALLOYL TYRAMINE] | 161
C[C@@H]1O[C@@H](Oc2c(-c3ccc(O)c(O)c3)oc3cc(O)cc(O)c3c2=O)[C@H](O)[C@H](O)[C@H]1O [QUERCITRIN] | 25
